Laboratory results: publication PMC3897731, “Antimicrobial Properties and Membrane-Active Mechanism of a Potential α-Helical Antimicrobial Derived from Cathelicidin PMAP-36” (PLoS ONE, 2014)
Values after ≈ are worked out from the molar mass of the structure shown. Where two headings read alike, the source gives them in different places. Ends that are not written are not given here.

Columns and labels:
[1] = system: Salmonella enterica serovar typhimurium C77-31
Description: (§1) The antimicrobial activity of each peptide was determined against the following bacteria strains: Escherichia coli ATCC 25922, Escherichia coli UB1005, Salmonella enterica serovar typhimurium C77-31, Staphylococcus aureus ATCC 29213, Staphylococcus aureus ATCC 25923 and Staphylococcus epidermidis ATCC 12228. The minimal inhibitory concentrations (MICs) of the peptides were measured according to a modified version of the National Committee for Clinical Laboratory Standards (NCCLS) broth microdilution method as described previously. Briefly, mid-logarithmic phase bacteria were cultured in Mueller-Hinton (MH) broth and then diluted to 1×10^5 CFU/ml. Equal volumes (50 µl) of microorganism solution and 2-fold serially diluted different concentrations (0.25–128 µM) peptides in 0.01% (v/v) acetic acid and 0.2% (w/v) bovine serum albumin (BSA, Sigma) were added to each well of the sterile 96-well plate. After incubation for 24 h at 37°C, MICs were determined as the lowest concentration of peptides that prevented visible turbidity by visual inspection. The tests were performed in triplicate. Cultures without peptides and uninoculated MH broth were employed as positive and negative controls, respectively. In addition, the salt stability of the peptides was tested in the MIC assay mentioned above.

[2] = system: gram-negative and gram-positive bacteria (six strains tested)
Description: as §1

Escherichia coli UB1005 = system: Escherichia coli UB1005
Description: as §1

[3] = system: Staphylococcus epidermidis ATCC 12228
Description: as §1

E. coli UB1005 = assay: Inner (cytoplasmic) membrane depolarization, diSC3(5); type: cell-based, Escherichia coli; settings: 0.4 µM diSC3(5), monitored over 360 s
Description: The cytoplasmic membrane depolarization activity of the peptides was measured by using E. coli UB1005 and the membrane potential sensitive fluorescent dye diSC3(5) as described previously. Briefly, mid-logarithmic phase E. coli were washed with 5 mM sodium HEPES buffer, pH 7.4, containing 20 mM glucose, and resuspended to an OD600 of 0.05 in the same buffer. The cell suspension was incubated with 0.4 µM diSC3(5) until a stable reduction of fluorescence was achieved (approximately 1 h). Then KCl was added to a final concentration of 0.1 M to equilibrate the cytoplasmic and external K^+. Two milliliters of the cell suspension were placed in a 1 cm cuvette, and the peptides were added to achieve the desired concentrations. Changes in fluorescence were recorded using an F-4500 fluorescence spectrophotometer (Hitachi, Japan) with an excitation wavelength of 622 nm and an emission wavelength of 670 nm. 0.1% Triton X-100 was employed as positive controls.

E. coli ATCC 25922 = assay: FACScan analysis of membrane integrity (propidium iodide); type: cell-based, Escherichia coli
Description: The integrity of the bacterial cell membranes after peptide treatment was determined using a previously described method. In brief, mid-logarithmic phase E. coli ATCC 25922 were harvested by centrifugation and washed three times with 10 mM PBS solution. The peptides (1×MIC and 2×MIC) were added and incubated for 30 min at 28°C with constant shaking at 140 rpm, and then, propidium iodide (PI, 10 µg/ml final concentration, Sigma) was added and incubated for a further 30 min at 4°C. After incubation, the unbound dye was removed via excessive washing of cells with PBS. Flow cytometry analysis was conducted using a FACScan instrument (Becton–Dickinson, San Jose, CA). E. coli cells were incubated with PI without peptide treated as negative control.

human erythrocytes = assay: Hemolytic activity; type: cell-based; settings: for Hemolytic activity (in words): 1 h at 37°C in PBS, absorbance at 570 nm, up to 128 µM, three independent experiments; for Concentration causing 50% hemolysis: highest concentration 128 µM
Description: The hemolytic activity of the peptides was measured as the amount of hemoglobin released by the lysis of human erythrocytes. Briefly, 1 ml of fresh human blood cells (hRBCs) obtained from a healthy donor (Na Dong, Harbin, China) in a polycarbonate tube containing heparin was centrifuged at 1,000×g for 5 min at 4°C [16]. The experimental protocol was reviewed and approved by the ethics committee of the Northeast Agricultural University Hospital. The erythrocytes obtained were washed three times with phosphate-buffered saline (PBS) solution (pH 7.2) and resuspended in PBS. A 50 µl volume of the erythrocyte solution was incubated with 50 µl of various peptides dissolved in PBS for 1 h at 37°C. Intact erythrocytes were pelleted by centrifugation at 1,000×g for 5 min at 4°C, and the supernatant was transferred to a new 96-well plate. The release of hemoglobin was monitored by measuring the absorbance at 570 nm. As negative and positive controls, hRBCs in PBS without the peptide and 0.1% Triton X-100 were employed, respectively.

[4] = system: Escherichia coli ATCC 25922; settings: ATCC 25922, 24 h
Description: as §1

[5] = system: Staphylococcus aureus ATCC 29213; settings: ATCC 29213, 24 h
Description: as §1

[6] = system: Staphylococcus aureus ATCC 25923; settings: ATCC 25923, 24 h
Description: as §1

[7] = strain not given; for MIC, Without treatment: no salt added
[8] = broth microdilution, MH broth, 1×10^5 CFU/ml, 24 h at 37°C, visible turbidity, triplicate
[9] = serovar typhimurium C77-31, 24 h
[10] = all tested strains, >128 µM counted as 256 µM

Molecule	MIC S. typhimurium C77-31 [1, 9] [µM]	GM, geometric mean of the MICs [2, 10] [µM]	MIC E. coli UB 1005 (Escherichia coli UB1005; UB1005, 24 h) [µM]	MIC E. coli ATCC25922 [4] [µM]	MIC S. aureus ATCC 29213 [5] [µM]	MIC S. aureus ATCC 25923 [6] [µM]	MIC S. epidermidis ATCC 12228 ([3]; ATCC 12228, 24 h) [µM]	Hemolytic activity (in words) (human erythrocytes)	also measured
CC[C@H](C)[C@H](NC(=O)CN)C(=O)NCC(=O)N[C@@H](C)C(=O)N[C@H](C(=O)N[C@@H](CC(C)C)C(=O)N[C@@H](CCCCN)C(=O)N[C@H](C(=O)N[C@@H](CC(C)C)C(=O)N[C@H](C(=O)N[C@H](C(=O)NCC(=O)N[C@@H](CC(C)C)C(=O)N1CCC[C@H]1C(=O)N[C@@H](C)C(=O)N[C@@H](CC(C)C)C(=O)N[C@H](C(=O)N[C@@H](CO)C(=O)N[C@@H](Cc1c[nH]c2ccccc12)C(=O)N[C@H](C(=O)N[C@@H](CCCCN)C(=O)N[C@@H](CCCNC(=N)N)C(=O)N[C@@H](CCCCN)C(=O)N[C@@H](CCCNC(=N)N)C(=O)N[C@@H](CCC(N)=O)C(=O)N[C@@H](CCC(N)=O)C(N)=O)[C@@H](C)CC)[C@@H](C)CC)[C@@H](C)O)[C@@H](C)O)C(C)C)C(C)C [melittin, reference compound]									MIC S. typhimurium C77-31 [1, 8]: 2 µM (≈ 5.69 µg/mL); GM, geometric mean of the MICs ([2]; 24 h): 2.52 µM; MIC E. coli UB 1005 (Escherichia coli UB1005; [8]): 2 µM (≈ 5.69 µg/mL); MIC S. epidermidis ATCC 12228 [3, 8]: 0.5 µM (≈ 1.42 µg/mL); Cytoplasmic membrane depolarization (diSC3(5) fluorescence, in words) (E. coli UB1005): induced dose-dependent increases in diSC3(5) fluorescence; Cells stained with PI (E. coli ATCC 25922): 40.7%; Concentration causing complete hemolysis (human erythrocytes; 1 h at 37°C): 4 µM
GRFRRLRKKTRK-NH2 [GK12]	>128	203.19	128	128	>128	>128	>128	no hemolytic activity	
GRFRRLRKKTRKRLKKIGKV									Antimicrobial activity (in words) ([2]; tested microorganisms, up to 128 µM): extremely low antimicrobial activity
GRFRRLRKKTRKRLKKIGKVLKAI-NH2 [GI24-W23A]	>128	71.84	16	16	128	128	128		
GRFRRLRKKTRKRLKKIGKVLKKI-NH2 [GI24-W23K]	>128	45.25	16	32	32	64	32	no hemolytic activity	
GRFRRLRKKTRKRLKKIGKVLKLI-NH2 [GI24-W23L]	2	2.52	2	1	4	4	4	slightly hemolytic activity	
GRFRRLRKKTRKRLKKIGKVLKWI-NH2 [GI24]	1	1.78	2	1	2	4	2	slightly hemolytic activity	MIC, CaCl2 (1 mM) [7]: 1 µM; MIC, MgCl2 (1 mM) [7]: 2 µM; MIC, NaCl (50 mM) [7]: 1 µM; MIC, NaCl (100 mM) [7]: 2 µM; MIC, NaCl (150 mM) [7]: 2 µM; MIC, Without treatment [7]: 1 µM; Concentration causing 50% hemolysis (human erythrocytes; 1 h at 37°C): > 128 µM
GRFRRLRKKTRKRLKKIGKVLKWIPPIVGSIPLGCG-NH2 [PMAP-36, porcine myeloid antimicrobial peptide-36]	1	1.59	2	1	2	2	2	slightly hemolytic activity	MIC, CaCl2 (1 mM) [7]: 1 µM; MIC, MgCl2 (1 mM) [7]: 2 µM; MIC, NaCl (50 mM) [7]: 1 µM; MIC, NaCl (100 mM) [7]: 1 µM; MIC, NaCl (150 mM) [7]: 2 µM; MIC, Without treatment [7]: 1 µM
GVFRRLRKVTRKVLKKIGKVLKWI-NH2 [GI24-V3]	4	3.56	4	4	4	4	2	relatively high hemolytic activity	Concentration causing 50% hemolysis (human erythrocytes; 1 h at 37°C): 128 µM
GVFRVLRKVTRVVLKVIGKVLKWI-NH2 [GI24-V6]	4	2.52	4	2	2	2	2	relatively high hemolytic activity	Concentration causing 50% hemolysis (human erythrocytes; 1 h at 37°C): 8 µM
PPIVGSIPLGCG-NH2 [PG12]	>128	256	>128	>128	>128	>128	>128	no hemolytic activity	
RLKKIGKVLKWI-NH2 [RI12]	8	28.51	16	8	64	128	64	no hemolytic activity	
